Experimental data as given in patent US7402576B2, “Phosphinic acid analogs of glutamate” (Givaudan SA, priority 2002, dated 2008).

What was measured:
[1] = target: T1, enzyme of Corynebacterium striatum Ax 20 (SEQ ID No. 1) (Corynebacterium striatum, UniProt Q8GGD4); test: Enzyme inhibition, cellular extract, Nα-lauroyl-L-glutamine cleavage, fluorescamine readout; assay type: biochemical, Corynebacterium striatum Ax 20 (DSM 14267); details: substrate Nα-lauroyl-L-glutamine 50 μM, 10 min preincubation at 37° C., 15 min incubation, pH 7
T1 construct: endogenous in cells; host or cells: Corynebacterium striatum Ax 20 (DSM 14267), wild-type cell extract
Procedure: Cellular Extracts of Corynebacterium striatum Ax 20 (DSM 14267) are prepared by mechanical disruption and subsequent centrifugation.
The extract (50 μl ml corresponding to 0.2 ml initial cell culture) is added to 50 μl of Buffer A (Phosphate Buffer, pH 7). Various concentrations of the compounds of the present invention are added in a volume of 40 μl, and after 10 min preincubation at 37° C., the reaction is and amended with 10 μl of substrate (Nα-lauroyl-L-glutamine, final concentration 50 μM). The samples are incubated for 15 min and then the reaction is stopped by adding 75 μl of Fluorescamine (2.5 mM dissolved in Acetonitrile). The fluorescence resulting from derivatization of the released glutamine with fluorescamine is determined at an excitation wavelength of 381 nm and an emission wavelength of 470 nm.
By comparing the samples containing compounds of the present invention with control samples with enzyme and substrate only, the inhibition (%) is calculated. Alternatively, the same assay is made with a recombinantly formed enzyme produced with a strain containing an expression vector comprising a nucleic acid sequence encoding for the enzyme.

Corynebacterium Ax20 = test: Inhibition of the enzymatic activity in living cells, release of lauric acid by GC; assay type: cell-based, Corynebacterium striatum Ax 20; details: 0.2 μM compound, stationary phase living cells, substrate Nα-lauroyl-L-glutamine 1 mM, 1 h
Procedure: The uptake of the compounds in bacterial cells and the inhibition of the enzyme contained therein may be measured using an assay based on stationary-phase living cells. Thus, cells may be incubated along with inhibitory compound or compounds, and the substrate (i.e. the material found in sweat, which when cleaved by the enzyme forms the malodorous acids), and the release of acids may be measured at various inhibitor concentrations. By comparing IC50 values obtained with the living cells with the IC50 values obtained with the isolated enzyme, the ease of penetration of the compounds into the bacterial cells can be assessed.
In order to evaluate enzyme activity in intact cells, stationary phase living cells of Ax20 are harvested and resuspended in Buffer A to an optical density at 600 nm of 0.25. Inhibitory compounds are added at various concentrations, and after a preincubation of 15 min, the substrate (Nα-lauroyl-L-glutamine, 1 mM final concentration) is added. The samples are incubated for 1 h and then extracted with MTBE and HCl and analysed for released lauric acid using capillary GC. By comparing the samples containing compounds of the present invention with control samples with bacteria and substrate only, the inhibition (%) is calculated. By comparing the inhibitory capacity of the compounds on the isolated enzyme with the values obtained using intact cells, the relative uptake of the compounds by the cells can be assessed. From Table 2 it appears, that compounds of the present invention can cross the bacterial cell wall and cytoplasmatic membrane, and thus can have inhibitory activity in living cells.

T1 sequence (Q8GGD4 2-400): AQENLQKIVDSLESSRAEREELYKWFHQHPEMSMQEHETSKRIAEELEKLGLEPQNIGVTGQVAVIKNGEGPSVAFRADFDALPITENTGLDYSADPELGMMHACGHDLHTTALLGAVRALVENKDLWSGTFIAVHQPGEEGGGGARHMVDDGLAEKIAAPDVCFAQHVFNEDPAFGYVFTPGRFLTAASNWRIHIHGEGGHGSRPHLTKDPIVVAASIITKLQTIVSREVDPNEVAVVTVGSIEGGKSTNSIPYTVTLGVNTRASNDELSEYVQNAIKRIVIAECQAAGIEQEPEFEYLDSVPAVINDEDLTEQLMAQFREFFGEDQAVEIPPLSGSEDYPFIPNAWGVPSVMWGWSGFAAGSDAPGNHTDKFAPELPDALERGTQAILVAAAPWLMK

Row | Compound | IC50 [1] | % inhibition of release of fatty acids by Corynebacterium Ax20 at a concentration of 0.2 μM (Corynebacterium Ax20)
1 | 4-Carbamoyl-2-[hydroxy-(4-phenyl-butyl)-phosphinoylmethyl]-butyric acid [Compound 5x] | 40 nM | 
2 | CCCCCCCCCCP(=O)(O)CC(CCC(N)=O)C(=O)O (stereo not drawn) [Compound 5a, 4-Carbamoyl-2-(decyl-hydroxy-phosphinoylmethyl)-butyric acid] | 30.3 nM | 60.9%
3 | CC(C)CCCC(C)CCP(=O)(O)CC(CCC(N)=O)C(=O)O (stereo not drawn) [Compound 5n, 4-Carbamoyl-2-[(3,7-dimethyl-octyl)-hydroxy-phosphinoylmethyl]-butyric acid] | 9 nM | 69.5%
4 | 4-Carbamoyl-2-(hydroxy-naphthalen-2-ylmethyl-phosphinoylmethyl)-butyric acid [Compound 5g] | 138 nM | 
5 | 4-Carbamoyl-2-[hydroxy-(3-phenyl-propyl)-phosphinoylmethyl]-butyric acid [Compound 5t] | 125 nM | 
6 | CC(CCc1ccccc1)CCP(=O)(O)CC(CCC(N)=O)C(=O)O (stereo not drawn) [Compound 5c, 4-Carbamoyl-2-[hydroxy-(3-methyl-5-phenyl-pentyl)-phosphinoylmethyl]-butyric acid] | 11.5 nM | 70.5%
7 | CCCCCCCCP(=O)(O)CC(CCC(N)=O)C(=O)O (stereo not drawn) [Compound 5y, 4-Carbamoyl-2-(hydroxy-octyl-phosphinoylmethyl)-butyric acid] | 17.9 nM | 64.9%
8 | 4-Carbamoyl-2-[hydroxy-(4-isopropyl-cyclohex-1-enylmethyl)-phosphinoylmethyl]-butyric acid [Compound 5z] | 32 nM | 
